Consider two compounds from article PMC8070745, “FEN1 Blockade for Platinum Chemo-Sensitization and Synthetic Lethality in Epithelial Ovarian Cancers” (Cancers, 2021).

The test system of experiment [1] is FEN1 nuclear level in A2780 cells. The experiment in a line: Nuclear extract western blot for FEN1, A2780. Format: cell-based, human. The conditions noted are these: 5 µM cisplatin, 24 h. The method, then: Clonogenic assay: In the clonogenic assay (colony formation assays), 32 cells/cm2 were seeded in 6-well plates and left at 37°C in a 5% CO2 atmosphere. Cisplatin (5µM) and/or FEN1i (10µM) and/or Importazole (5 µM, Selleckem, S8446 ) were added at the indicated concentrations and the plates were left at 37 °C in a 5% CO 2 atmosphere for 14 days. Later, the plates were washed with PBS, fixed and stained with a crystal violet, acetic acid and methanol solution and colonies were counted.
Nuclear and cytoplasmic extract: Cells were harvest by trypsinization, washed with PBS and centrifuged at 1000×g for 5min. […] Protein level were then quantified prior to use in western blots.
BCA protein quantification: Protein quantification was done using the Pierce BCA kit assay by Thermo Fisher Scientific. […] The plate was incubated at 37°C during 30 min in the dark and the absorbance was measured by FLUOstar OPTIMA, UK/ Infinite® F50 (UK) microplate reader at 590 nm. […]
Western Blot Analysis: Cells were harvested and lysed in RIPA buffer (R0278, Sigma) with the addition of protease cocktail inhibitor (P8348, Sigma), phosphatase inhibitor cocktail 2 (P5726, Sigma) and phosphatase inhibitor cocktail 3 (P0044, Sigma) and stored at - 20°C. Protein was quantified using BCA Protein Assay kit (23225, Thermo Fisher). […]

A further experiment relates to ATM-deficient HeLa cells. The experiment in a line: FEN1 inhibitor cytotoxicity, ATM-deficient HeLa. In kind it is cell-based. The conditions noted are these: vs HeLa control.
A further experiment relates to POLβ KO A2780cis cells. The experiment in a line: γH2AX analysis, POLβ KO A2780cis. The conditions noted are these: FEN1i-treated. In kind it is cell-based, human. The method, then: (§1) Graphical representation and statistical analysis of mean tail moment was performed in GraphPad Prism 6 (GraphPad, La Jolla, USA). All experiments were done in duplicate three times.
(§2) γH2AX FACS: For monitoring DNA double strand break accumulation by γH2AX FACS, 1.05×104 Cells/cm2 were seeded in 6-well plates and left overnight at 37°C in a 5% CO 2 atmosphere. Cisplatin (5µM) or FEN1i (10µM) was later added to cells and incubated for 24h and 48h at 37°C in a 5% CO2 atmosphere. Cells were collected by trypsinization, washed […]
(§3) with ice cold PBS and fixed in 70% ethanol for 1h at -20°C. After removal of the fixative solution by centrifugation, cells were stained with 2 µg/ml of phospho-Histone (γH2AX) Ser139 (16202A, Millipore, UK) to detect DSBs.
(§4) Cell cycle progression: Cells were treated with 20 µg/ml RNase A (12091021, Invitrogen) and then 10 µg/ml Propidium Iodide (P4170, Sigma Aldrich) was added to determine the cell cycle distribution. The samples were analysed on a Beckman-Coulter FC500 flow cytometer using a 488nm laser for excitation and emission data for PI collected using a 620nm bandpass filter (FL3) and a 525nm bandpass filter (FL1) for FITC-anti-phospho-Histone H2A.X. […]
(§5) Graphical representation and statistical analysis was performed in GraphPad Prism 7 (GraphPad, La Jolla, USA). […]

Experiment [2] has as its target T1, Recombinant human FEN1 protein (Homo sapiens, UniProt P39748).
T1 construct: made in house
The experiment in a line: radio-labeled FEN1 cleavage assay. Format: biochemical. The conditions noted are these: 3 nM FEN1, 37 °C, 10 min.

Experiment [3] has as its system XRCC1 deficient HeLa cells. The experiment in a line: FEN1 inhibitor cytotoxicity, XRCC1 deficient HeLa. Format: cell-based. The conditions noted are these: vs HeLa control.
A further experiment relates to PEO4 cells. Description: γH2AX analysis, PEO4. In kind it is cell-based, human. To be noted: FEN1i plus cisplatin. The method, then: as §1, §2, §3, §4, §5

Structures are written as SMILES.

T1 sequence (P39748 whole entry): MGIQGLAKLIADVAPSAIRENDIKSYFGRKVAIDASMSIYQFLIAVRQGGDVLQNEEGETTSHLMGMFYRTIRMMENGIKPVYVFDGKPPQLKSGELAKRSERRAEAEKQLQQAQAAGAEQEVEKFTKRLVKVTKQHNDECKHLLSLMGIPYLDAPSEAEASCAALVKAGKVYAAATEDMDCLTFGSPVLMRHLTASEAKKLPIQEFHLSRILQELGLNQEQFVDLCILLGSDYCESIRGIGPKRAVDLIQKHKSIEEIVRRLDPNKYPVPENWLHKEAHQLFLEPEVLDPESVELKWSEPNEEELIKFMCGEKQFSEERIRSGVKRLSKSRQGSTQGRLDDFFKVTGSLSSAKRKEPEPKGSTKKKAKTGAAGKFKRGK

On to `N.N.[Cl][Pt][Cl]` [cisplatin], for which the “nuclear level of FEN1 after cisplatin” value in experiment [1] is reported as “significantly decreased”.

As to `Cc1csc2c1c(=O)n(O)c(=O)n2-c1ccccc1` [PTPD, 3-hydroxy-5-methyl-1-phenylthieno [2,3 d]pyrimidine-2,4(1H,3H)-dione], the “sensitivity to FEN1 inhibitor” value in the experiment on ATM-deficient HeLa cells was “did not observe increased sensitivity”; in experiment [3], “did not observe any increased sensitivity”. For the same compound, in the experiment with POLβ KO A2780cis cells, the “DSBs (γH2AX)” value is recorded as “increased DSBs”. For the same compound, the “FEN1 inhibition in cleavage assay” value in experiment [2] is recorded as “confirmed FEN1 inhibition”. Further, the γH2AX nuclear foci result in the experiment with PEO4 cells is “increased nuclear γH2AX nuclear foci accumulation”.
